Reference: ChEMBL document CHEMBL1201862, “PubChem BioAssay data set” (2004)
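1) Cells in 96-well plates. 2) Compound, 48 h, 5 concentrations. 3) Linear interpolation between surrounding doses. 4) Unreached endpoint = highest concentration. GI50: concentration for 50% inhibition of growth.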 The source made the active and inactive calls. No stated cut-off is given here; in the data, active = GI50 up to about 1.1 µM and inactive = higher.

Assays:
Assay in all cases: inhibition of tumour cell growth, NCI panel, 48 h
A549 = system: A549
HCT-116 = system: HCT-116
SW-620 = system: SW-620
BT-549 = system: BT-549
IGROV-1 = system: IGROV-1
UACC-62 = system: UACC-62
K562 = system: K562
OVCAR-4 = system: OVCAR-4
NCI-H460 = system: NCI-H460
A498 = system: A498
CAKI-1 = system: CAKI-1
786-0 = system: 786-0
SN12C = system: SN12C
U-251 = system: U-251
MDA-MB-435 = system: MDA-MB-435
COLO 205 = system: COLO 205
EKVX = system: EKVX
SR = system: SR

SMILES | GI50 (A549) | GI50 (HCT-116) | GI50 (SW-620) | GI50 (BT-549) | GI50 (IGROV-1) | GI50 (UACC-62) | GI50 (K562) | GI50 (OVCAR-4) | GI50 (NCI-H460) | GI50 (A498) | GI50 (CAKI-1) | GI50 (786-0) | GI50 (SN12C) | GI50 (U-251) | GI50 (MDA-MB-435) | GI50 (COLO 205) | GI50 (EKVX) | GI50 (SR)
Cc1ccc(/N=N/c2c(C)c(C#N)c(=S)n(C3OC(CO)C(O)C(O)C3O)c2-c2ccccc2)cc1 (centres undefined) | 32 µM (inactive) | 13.2 µM (inactive) | 15.6 µM (inactive) | 19.6 µM (inactive) | 31.3 µM (inactive) | 14.5 µM (inactive) | 8.13 µM (inactive) | 29 µM (inactive) | 27.7 µM (inactive) | 0.74 µM (active) | 25.7 µM (inactive) | 21 µM (inactive) | 31.4 µM (inactive) | 14.4 µM (inactive) | 6.18 µM (inactive) | 25.1 µM (inactive) |  | 
N#C/C(=C1\N=C(c2ccccc2O)Oc2ccccc21)c1ccc([N+](=O)[O-])cc1 | > 100 µM (inactive) | > 100 µM (inactive) | > 100 µM (inactive) | > 100 µM (inactive) | 88.9 µM (inactive) | > 100 µM (inactive) | > 100 µM (inactive) | 41.9 µM (inactive) | > 100 µM (inactive) | > 100 µM (inactive) | > 100 µM (inactive) | 93.8 µM (inactive) | > 100 µM (inactive) | 71.9 µM (inactive) | > 100 µM (inactive) | > 100 µM (inactive) | > 100 µM (inactive) | 
COc1ccccc1Nc1nc2c([nH]1)c(=O)n(C)c(=O)n2C | > 10 µM (inactive) |  | > 10 µM (inactive) |  | > 10 µM (inactive) | > 10 µM (inactive) | > 10 µM (inactive) | > 10 µM (inactive) |  |  | > 10 µM (inactive) | > 10 µM (inactive) | > 10 µM (inactive) |  | > 10 µM (inactive) | > 10 µM (inactive) | > 10 µM (inactive) | > 10 µM (inactive)
Cc1ccc(NC(=O)CC(=O)N2N=C(N(c3ccccc3)c3ccccc3)CC2c2ccccc2)cc1 (centres undefined) | > 100 µM (inactive) | > 100 µM (inactive) | > 100 µM (inactive) | > 100 µM (inactive) | > 100 µM (inactive) | > 100 µM (inactive) | > 100 µM (inactive) | > 100 µM (inactive) | > 100 µM (inactive) | > 100 µM (inactive) | > 100 µM (inactive) | > 100 µM (inactive) |  | > 100 µM (inactive) | > 100 µM (inactive) | > 100 µM (inactive) | > 100 µM (inactive) | 
CC(C)=Cc1cc(C)c2c(O)cc(C)c3c2c1C(C)=C(O)C3=O | 24.8 µM (inactive) | 17.7 µM (inactive) | 31.5 µM (inactive) |  | 27.5 µM (inactive) | 20.5 µM (inactive) | 13 µM (inactive) |  | 21.2 µM (inactive) | 22.9 µM (inactive) | 27 µM (inactive) | 25.8 µM (inactive) | 32.9 µM (inactive) | 32.7 µM (inactive) | 26.5 µM (inactive) | 13 µM (inactive) |  | 35.3 µM (inactive)
CN1CCN(C(=S)N(C)C(=O)c2ccco2)CC1 | > 100 µM (inactive) |  | > 100 µM (inactive) | > 100 µM (inactive) | > 100 µM (inactive) | > 100 µM (inactive) | > 100 µM (inactive) | > 100 µM (inactive) | > 100 µM (inactive) |  |  | > 100 µM (inactive) | > 100 µM (inactive) | > 100 µM (inactive) | > 100 µM (inactive) | > 100 µM (inactive) |  | > 100 µM (inactive)
CCOC(=O)c1c(SC(=O)C(C)(C)Oc2ccc(Cl)cc2)n(-c2ccccc2)c(=S)n(-c2ccccc2)c1=O | 26.9 µM (inactive) | 22.4 µM (inactive) | 22.6 µM (inactive) |  | 20.1 µM (inactive) | 67.8 µM (inactive) | 30.8 µM (inactive) | 34.4 µM (inactive) | 22.1 µM (inactive) | 52.7 µM (inactive) | > 100 µM (inactive) | 27.6 µM (inactive) | 25.2 µM (inactive) | 19.6 µM (inactive) | 33 µM (inactive) | 20.7 µM (inactive) | 52.8 µM (inactive) | 23.9 µM (inactive)
N#Cc1c(-c2ccc([N+](=O)[O-])cc2)c(C#N)c(=O)n(NS(=O)(=O)c2ccccc2)c1-c1ccccc1 | > 100 µM (inactive) | > 100 µM (inactive) | > 100 µM (inactive) | > 100 µM (inactive) | > 100 µM (inactive) | > 100 µM (inactive) | > 100 µM (inactive) | > 100 µM (inactive) | > 100 µM (inactive) | > 100 µM (inactive) | > 100 µM (inactive) | > 100 µM (inactive) | > 100 µM (inactive) | > 100 µM (inactive) | > 100 µM (inactive) | > 100 µM (inactive) | > 100 µM (inactive) | 
C/C=C1/CN2CCC34c5ccccc5N(C)C23C2CC1C4(C(=O)OC)C(O)O2 (centres undefined) | > 100 µM (inactive) | > 100 µM (inactive) | > 100 µM (inactive) | > 100 µM (inactive) | > 100 µM (inactive) | > 100 µM (inactive) | > 100 µM (inactive) | > 100 µM (inactive) | > 100 µM (inactive) | > 100 µM (inactive) | > 100 µM (inactive) | > 100 µM (inactive) | > 100 µM (inactive) | > 100 µM (inactive) | > 100 µM (inactive) | > 100 µM (inactive) | > 100 µM (inactive) | 
N#CC(C#N)=Cn1c(=S)[nH]c2ccc([N+](=O)[O-])cc21 | > 100 µM (inactive) | > 100 µM (inactive) | > 100 µM (inactive) |  | > 100 µM (inactive) | > 100 µM (inactive) | > 100 µM (inactive) | > 100 µM (inactive) | > 100 µM (inactive) | > 100 µM (inactive) | 71.4 µM (inactive) | > 100 µM (inactive) | > 100 µM (inactive) | > 100 µM (inactive) | > 100 µM (inactive) | > 100 µM (inactive) | > 100 µM (inactive) | > 100 µM (inactive)
COc1ccc(/C=C/C(=O)c2cc(OC)cc(OC)c2)cc1 | 2.13 µM (inactive) | 1.22 µM (inactive) | 0.64 µM (active) |  | 4.57 µM (inactive) | 4.14 µM (inactive) | 2.59 µM (inactive) | 3.45 µM (inactive) | 2.9 µM (inactive) | 3.67 µM (inactive) | 2.59 µM (inactive) | 1.16 µM (inactive) | 3.56 µM (inactive) | 1.24 µM (inactive) | 1.54 µM (inactive) | 4.56 µM (inactive) | 6.52 µM (inactive) | 0.371 µM (active)
CCCCSC1=N/C(=C\c2ccco2)C(Cl)=N1 | > 100 µM (inactive) | > 100 µM (inactive) | > 100 µM (inactive) | > 100 µM (inactive) | > 100 µM (inactive) | > 100 µM (inactive) |  | > 100 µM (inactive) | > 100 µM (inactive) | > 100 µM (inactive) | > 100 µM (inactive) | > 100 µM (inactive) | > 100 µM (inactive) | > 100 µM (inactive) | > 100 µM (inactive) | > 100 µM (inactive) | > 100 µM (inactive) | 
O=C(O)C1CCCCC1c1c2ccc(=O)c(O)c-2oc2c(O)c(O)ccc12 (centres undefined) | 13 µM (inactive) | 13.2 µM (inactive) | 17.6 µM (inactive) |  | 26.2 µM (inactive) | 23.6 µM (inactive) | 17.9 µM (inactive) | 21.7 µM (inactive) | 37.7 µM (inactive) | 21.7 µM (inactive) | 65.6 µM (inactive) | 19.3 µM (inactive) | 19.3 µM (inactive) | 7.4 µM (inactive) | 16.7 µM (inactive) | > 100 µM (inactive) | 38.1 µM (inactive) | 27.5 µM (inactive)
Cc1cccc(/C=C2/C(=O)Nc3ccccc32)n1 |  | 12.2 µM (inactive) | 19.3 µM (inactive) | 21.4 µM (inactive) |  |  | 9.98 µM (inactive) | 23.4 µM (inactive) | 16.9 µM (inactive) | 21.3 µM (inactive) | 11.9 µM (inactive) | 13 µM (inactive) |  | 15.7 µM (inactive) | 16.7 µM (inactive) | 19.9 µM (inactive) | 16.8 µM (inactive) | 
c1ccc2c(c1)Nc1cccc3c1c-2nc1cc2ccccc2cc13 | 1.8 µM (inactive) | 1.75 µM (inactive) | 1.53 µM (inactive) | 12.4 µM (inactive) | 1.41 µM (inactive) | 2.12 µM (inactive) | 0.513 µM (active) | 1.87 µM (inactive) | 1.65 µM (inactive) | 2.88 µM (inactive) | 1.64 µM (inactive) | 1.72 µM (inactive) | 1.69 µM (inactive) | 2.03 µM (inactive) | 2 µM (inactive) | 1.63 µM (inactive) | 1.55 µM (inactive) | 
COc1cc(OC)c(OC)cc1/C=C/c1ccc2ccccc2n1 | > 10 µM (inactive) | 3.72 µM (inactive) | > 10 µM (inactive) | 8.89 µM (inactive) | > 10 µM (inactive) | 6.44 µM (inactive) | 5.33 µM (inactive) | > 10 µM (inactive) |  |  | > 10 µM (inactive) | > 10 µM (inactive) | > 10 µM (inactive) | > 10 µM (inactive) | 7.23 µM (inactive) | > 10 µM (inactive) |  | 3.57 µM (inactive)
COc1ccc2c(c1OC)C(=O)N/C2=C\c1c(CCN(C)C)cc2c(c1OC)OCO2 | > 100 µM (inactive) | 83.2 µM (inactive) | > 100 µM (inactive) | > 100 µM (inactive) | 38.6 µM (inactive) |  | 68.7 µM (inactive) | > 100 µM (inactive) | > 100 µM (inactive) |  |  | > 100 µM (inactive) | > 100 µM (inactive) | > 100 µM (inactive) | 31.5 µM (inactive) | 46.2 µM (inactive) | > 100 µM (inactive) | > 100 µM (inactive)
